Experimental data published in ChEMBL document CHEMBL2046314, “Chlorine atom substitution influences radical scavenging activity of 6-chromanol” (Bioorg Med Chem, 2012).

Columns and labels:
[1] = Hydroxyl radical scavenging activity assessed as reduction of DMPO-OH adduct formation using Fenton reaction by ESR spectroscopy; assay type: functional
[2] = Antioxidant activity assessed as second order rate constant for galvinoxyl radical scavenging activity in acetonitrile solution by UV-visible absorption spectroscopy; assay type: functional
[3] = Dissociation constant, pKa of the compound by UV-visible absorption spectroscopy; assay type: physicochemical

SMILES	Activity [1]	Activity [2] [M⁻¹ s⁻¹]	pKa [3]
CC1(C)CCc2c(ccc(O)c2Cl)O1	Dose-dependent effect	37	8.6
CC1(C)CCc2cc(O)ccc2O1	Dose-dependent effect	98	10.3
CC1(C)CCc2cc(O)cc(Cl)c2O1	Dose-dependent effect	21	9.8
CC1(C)CCc2c(cc(Cl)c(O)c2Cl)O1	Dose-dependent effect	67	7.7
CC1(C)CCc2cc(O)c(Cl)cc2O1	Dose-dependent effect	42	9.1
CC1(C)CCc2c(Cl)c(O)c(Cl)c(Cl)c2O1	Dose-dependent effect	54	7.1
